Source: patent US9963445B2, “Chemical compounds” (SYNGENTA PARTICIPATIONS AG, priority 2013, dated 2018)

What follows are molecules tested on Abutilon theophrasti (assay: Pre-emergence herbicidal activity, glasshouse pot test). Details: pre-emergence spray, rate 1000 g/ha, evaluated after 13 days, scale 0-5.
Assay type: in vivo
Summary of the method: (§1)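 Glasshouse conditions were 24/16 °C day/night with 14 h light and 65% humidity throughout. Soil was sprayed before emergence, one day after sowing, using an acetone/water (50:50) formulation with 0.5% Tween 20; injury was scored 0–5 after 13 days.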

Compound	ABUTH damage score, application pre-emergence
CC(C)C1=C(Cl)C(=O)N(c2cc(C(F)(F)F)ccn2)C1O (stereo not drawn) [AF83]	0
CCC1=C(Cl)C(=O)N(c2cc(C(F)(F)F)ccn2)C1O (stereo not drawn) [AF84, 4-chloro-3-ethyl-2-hydroxy-1-[4-(trifluoromethyl)-2-pyridyl]-2H-pyrrol-5-one]	2
CC1=C(Cl)C(=O)N(c2cc(C(F)(F)F)c(-c3ccc(Cl)cc3)cn2)C1O (stereo not drawn) [AF87]	0
CC1=C(Cl)C(=O)N(c2cc(C(F)(F)F)c(C(=O)NC(C)(C)C)cn2)C1O (stereo not drawn) [AF88]	5

The molecules below were run on Alopecurus myosuroides in the same assay as above. Details: pre-emergence spray, rate 1000 g/ha, evaluated after 13 days, scale 0-5.
Assay type: in vivo
Summary of the method: as §1

Compound	ALOMY damage score, application pre-emergence
CC(C)C1=C(Cl)C(=O)N(c2cc(C(F)(F)F)ccn2)C1O (stereo not drawn) [AF83]	2
CCC1=C(Cl)C(=O)N(c2cc(C(F)(F)F)ccn2)C1O (stereo not drawn) [AF84, 4-chloro-3-ethyl-2-hydroxy-1-[4-(trifluoromethyl)-2-pyridyl]-2H-pyrrol-5-one]	3
CC1=C(Cl)C(=O)N(c2cc(C(F)(F)F)c(-c3ccc(Cl)cc3)cn2)C1O (stereo not drawn) [AF87]	2
CC1=C(Cl)C(=O)N(c2cc(C(F)(F)F)c(C(=O)NC(C)(C)C)cn2)C1O (stereo not drawn) [AF88]	4

What follows are molecules tested on Amaranthus retroflexus in the same assay as above. Details: pre-emergence spray, rate 1000 g/ha, evaluated after 13 days, scale 0-5.
Assay type: in vivo
Summary of the method: as §1

Compound	AMARE damage score, application pre-emergence
CC(C)C1=C(Cl)C(=O)N(c2cc(C(F)(F)F)ccn2)C1O (stereo not drawn) [AF83]	2
CCC1=C(Cl)C(=O)N(c2cc(C(F)(F)F)ccn2)C1O (stereo not drawn) [AF84, 4-chloro-3-ethyl-2-hydroxy-1-[4-(trifluoromethyl)-2-pyridyl]-2H-pyrrol-5-one]	5
CC1=C(Cl)C(=O)N(c2cc(C(F)(F)F)c(-c3ccc(Cl)cc3)cn2)C1O (stereo not drawn) [AF87]	2
CC1=C(Cl)C(=O)N(c2cc(C(F)(F)F)c(C(=O)NC(C)(C)C)cn2)C1O (stereo not drawn) [AF88]	5

Each molecule was assayed on Echinochloa crus-galli in the same assay as above. Details: pre-emergence spray, rate 1000 g/ha, evaluated after 13 days, scale 0-5.
Assay type: in vivo
Summary of the method: as §1

Compound	ECHCG damage score, application pre-emergence
CC(C)C1=C(Cl)C(=O)N(c2cc(C(F)(F)F)ccn2)C1O (stereo not drawn) [AF83]	2
CCC1=C(Cl)C(=O)N(c2cc(C(F)(F)F)ccn2)C1O (stereo not drawn) [AF84, 4-chloro-3-ethyl-2-hydroxy-1-[4-(trifluoromethyl)-2-pyridyl]-2H-pyrrol-5-one]	5
CC1=C(Cl)C(=O)N(c2cc(C(F)(F)F)c(-c3ccc(Cl)cc3)cn2)C1O (stereo not drawn) [AF87]	0
CC1=C(Cl)C(=O)N(c2cc(C(F)(F)F)c(C(=O)NC(C)(C)C)cn2)C1O (stereo not drawn) [AF88]	5

These molecules were tested on Setaria faberi in the same assay as above. Details: pre-emergence spray, rate 1000 g/ha, evaluated after 13 days, scale 0-5.
Assay type: in vivo
Summary of the method: as §1

Compound	SETFA damage score, application pre-emergence
CC(C)C1=C(Cl)C(=O)N(c2cc(C(F)(F)F)ccn2)C1O (stereo not drawn) [AF83]	1
CCC1=C(Cl)C(=O)N(c2cc(C(F)(F)F)ccn2)C1O (stereo not drawn) [AF84, 4-chloro-3-ethyl-2-hydroxy-1-[4-(trifluoromethyl)-2-pyridyl]-2H-pyrrol-5-one]	2
CC1=C(Cl)C(=O)N(c2cc(C(F)(F)F)c(-c3ccc(Cl)cc3)cn2)C1O (stereo not drawn) [AF87]	3
CC1=C(Cl)C(=O)N(c2cc(C(F)(F)F)c(C(=O)NC(C)(C)C)cn2)C1O (stereo not drawn) [AF88]	5

These molecules were tested on zea mays in the same assay as above. Details: pre-emergence spray, rate 1000 g/ha, evaluated after 13 days, scale 0-5.
Assay type: in vivo
Summary of the method: as §1

Compound	ZEAMX damage score, application pre-emergence
CC(C)C1=C(Cl)C(=O)N(c2cc(C(F)(F)F)ccn2)C1O (stereo not drawn) [AF83]	1
CCC1=C(Cl)C(=O)N(c2cc(C(F)(F)F)ccn2)C1O (stereo not drawn) [AF84, 4-chloro-3-ethyl-2-hydroxy-1-[4-(trifluoromethyl)-2-pyridyl]-2H-pyrrol-5-one]	0
CC1=C(Cl)C(=O)N(c2cc(C(F)(F)F)c(-c3ccc(Cl)cc3)cn2)C1O (stereo not drawn) [AF87]	0
CC1=C(Cl)C(=O)N(c2cc(C(F)(F)F)c(C(=O)NC(C)(C)C)cn2)C1O (stereo not drawn) [AF88]	4

What follows are molecules tested on Abutilon theophrasti (assay: Post-emergence herbicidal activity, glasshouse pot test). Details: Application post-emergence, rate 1000 g/ha, evaluated after 13 days.
Assay type: in vivo
Parameters: key: 0 = no damage to plant, 5 = total damage to plant
Summary of the method: (§2)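 Pot-grown seedlings, sown in standard soil, were sprayed 8 days after sowing and kept in a controlled glasshouse (24/16 °C, 14 h photoperiod, 65% humidity). Injury was assessed visually 13 days later on a scale where 5 means total damage.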

Compound	ABUTH herbicidal damage score
CC(C)C1=C(Cl)C(=O)N(c2cc(C(F)(F)F)ccn2)C1O (stereo not drawn) [AF83]	2
CCC1=C(Cl)C(=O)N(c2cc(C(F)(F)F)ccn2)C1O (stereo not drawn) [AF84, 4-chloro-3-ethyl-2-hydroxy-1-[4-(trifluoromethyl)-2-pyridyl]-2H-pyrrol-5-one]	5
CC1=C(Cl)C(=O)N(c2cc(C(F)(F)F)c(-c3ccc(Cl)cc3)cn2)C1O (stereo not drawn) [AF87]	4
CC1=C(Cl)C(=O)N(c2cc(C(F)(F)F)c(C(=O)NC(C)(C)C)cn2)C1O (stereo not drawn) [AF88]	5

What follows are molecules tested on Alopecurus myosuroides in the same assay as above. Details: Application post-emergence, rate 1000 g/ha, evaluated after 13 days.
Assay type: in vivo
Parameters: key: 0 = no damage to plant, 5 = total damage to plant
Summary of the method: as §2

Compound	ALOMY herbicidal damage score
CC(C)C1=C(Cl)C(=O)N(c2cc(C(F)(F)F)ccn2)C1O (stereo not drawn) [AF83]	3
CCC1=C(Cl)C(=O)N(c2cc(C(F)(F)F)ccn2)C1O (stereo not drawn) [AF84, 4-chloro-3-ethyl-2-hydroxy-1-[4-(trifluoromethyl)-2-pyridyl]-2H-pyrrol-5-one]	5
CC1=C(Cl)C(=O)N(c2cc(C(F)(F)F)c(-c3ccc(Cl)cc3)cn2)C1O (stereo not drawn) [AF87]	4
CC1=C(Cl)C(=O)N(c2cc(C(F)(F)F)c(C(=O)NC(C)(C)C)cn2)C1O (stereo not drawn) [AF88]	5

Each molecule was assayed on Amaranthus retroflexus in the same assay as above. Details: Application post-emergence, rate 1000 g/ha, evaluated after 13 days.
Assay type: in vivo
Parameters: key: 0 = no damage to plant, 5 = total damage to plant
Summary of the method: as §2

Compound	AMARE herbicidal damage score
CC(C)C1=C(Cl)C(=O)N(c2cc(C(F)(F)F)ccn2)C1O (stereo not drawn) [AF83]	0
CCC1=C(Cl)C(=O)N(c2cc(C(F)(F)F)ccn2)C1O (stereo not drawn) [AF84, 4-chloro-3-ethyl-2-hydroxy-1-[4-(trifluoromethyl)-2-pyridyl]-2H-pyrrol-5-one]	4
CC1=C(Cl)C(=O)N(c2cc(C(F)(F)F)c(-c3ccc(Cl)cc3)cn2)C1O (stereo not drawn) [AF87]	5
CC1=C(Cl)C(=O)N(c2cc(C(F)(F)F)c(C(=O)NC(C)(C)C)cn2)C1O (stereo not drawn) [AF88]	5

These molecules were tested on Echinochloa crus-galli in the same assay as above. Details: Application post-emergence, rate 1000 g/ha, evaluated after 13 days.
Assay type: in vivo
Parameters: key: 0 = no damage to plant, 5 = total damage to plant
Summary of the method: as §2

Compound	ECHCG herbicidal damage score
CC(C)C1=C(Cl)C(=O)N(c2cc(C(F)(F)F)ccn2)C1O (stereo not drawn) [AF83]	2
CCC1=C(Cl)C(=O)N(c2cc(C(F)(F)F)ccn2)C1O (stereo not drawn) [AF84, 4-chloro-3-ethyl-2-hydroxy-1-[4-(trifluoromethyl)-2-pyridyl]-2H-pyrrol-5-one]	5
CC1=C(Cl)C(=O)N(c2cc(C(F)(F)F)c(-c3ccc(Cl)cc3)cn2)C1O (stereo not drawn) [AF87]	4
CC1=C(Cl)C(=O)N(c2cc(C(F)(F)F)c(C(=O)NC(C)(C)C)cn2)C1O (stereo not drawn) [AF88]	5

What follows are molecules tested on Setaria faberi in the same assay as above. Details: Application post-emergence, rate 1000 g/ha, evaluated after 13 days.
Assay type: in vivo
Parameters: key: 0 = no damage to plant, 5 = total damage to plant
Summary of the method: as §2

Compound	SETFA herbicidal damage score
CC(C)C1=C(Cl)C(=O)N(c2cc(C(F)(F)F)ccn2)C1O (stereo not drawn) [AF83]	0
CCC1=C(Cl)C(=O)N(c2cc(C(F)(F)F)ccn2)C1O (stereo not drawn) [AF84, 4-chloro-3-ethyl-2-hydroxy-1-[4-(trifluoromethyl)-2-pyridyl]-2H-pyrrol-5-one]	5
CC1=C(Cl)C(=O)N(c2cc(C(F)(F)F)c(-c3ccc(Cl)cc3)cn2)C1O (stereo not drawn) [AF87]	5
CC1=C(Cl)C(=O)N(c2cc(C(F)(F)F)c(C(=O)NC(C)(C)C)cn2)C1O (stereo not drawn) [AF88]	5

The molecules below were run on zea mays in the same assay as above. Details: Application post-emergence, rate 1000 g/ha, evaluated after 13 days.
Assay type: in vivo
Parameters: key: 0 = no damage to plant, 5 = total damage to plant
Summary of the method: as §2

Compound	ZEAMX herbicidal damage score
CC(C)C1=C(Cl)C(=O)N(c2cc(C(F)(F)F)ccn2)C1O (stereo not drawn) [AF83]	0
CCC1=C(Cl)C(=O)N(c2cc(C(F)(F)F)ccn2)C1O (stereo not drawn) [AF84, 4-chloro-3-ethyl-2-hydroxy-1-[4-(trifluoromethyl)-2-pyridyl]-2H-pyrrol-5-one]	3
CC1=C(Cl)C(=O)N(c2cc(C(F)(F)F)c(-c3ccc(Cl)cc3)cn2)C1O (stereo not drawn) [AF87]	3
CC1=C(Cl)C(=O)N(c2cc(C(F)(F)F)c(C(=O)NC(C)(C)C)cn2)C1O (stereo not drawn) [AF88]	5
